Test results as given in the Deep4Chem optical property database.
Where “and” joins values, the source holds several entries; their conditions need not be identical. Equal values may be shown once. One block for each compound: values may come before it.

Assay: solvent given as SMILES

absorption maximum (in ClCCl): 370 nm
SMILES: Cc1ccc2nc3cc4c(cc3c(-c3ccccc3)c2c1)[Si](C)(C)O[Si]4(C)C

SMILES: Cc1cc(C)c(B(c2c(C)cc(C)cc2C)c2c(C)cc(N3c4ccccc4Oc4ccccc43)cc2C)c(C)c1
absorption maximum (in Cc1ccccc1): 399 nm

absorption maximum (in CO): 570 nm
SMILES: CCN(CC)c1ccc(C2=C3C(C)=CC(/C=C/c4ccc(OCCCN=[N+]=[N-])cc4)=[N+]3[B-](F)(F)n3c(C)cc(C)c32)cc1

absorption maximum (in C1CCCCC1): 326.01 nm
absorption maximum (in C1CCOC1): 364.05 nm
absorption maximum (in C1COCCO1): 365.68 nm
absorption maximum (in CC#N): 381.45 nm
absorption maximum (in CCOC(C)=O): 364.01 nm
absorption maximum (in CN(C)C=O): 376.7 nm
absorption maximum (in CO): 386.62 nm
absorption maximum (in CS(C)=O): 368.79 nm
absorption maximum (in ClC(Cl)Cl): 385 nm
SMILES: N#Cc1nnn(-c2ccnc3cc(Cl)ccc23)c1N

absorption maximum (in C1CCCCC1): 412 nm
absorption maximum (in CC#N): 439 nm
absorption maximum (in CCO): 438 nm
absorption maximum (in c1ccccc1): 433 nm
SMILES: CN(C)c1cccc2c1-c1ccccc1C2=O

absorption maximum (in ClCCl): 383 nm
SMILES: COc1ccc(-c2cc3c(ccc4sc5ccc6sc(-c7ccc(C#N)cc7)cc6c5c43)s2)cc1

absorption maximum (in ClCCl): 526 nm
SMILES: COc1ccc(C2=C(c3ccc(OC)cc3)c3cccc4c5c(cc(c34)O2)=NC2C=C(Br)C(Br)=CC2N=5)cc1 (configuration not stated)

absorption maximum (in C1CCOC1): 343 nm
SMILES: CC(=O)c1ccc(-c2ccc3c(c2)C(=O)c2cc(-c4ccc(C(C)=O)cc4)ccc2-3)cc1

absorption maximum (in O): 220 nm
SMILES: CC(N)=O

absorption maximum (in ClCCl): 362 nm
SMILES: O=c1c2ccccc2nc2ccc(-c3ccc(-c4ccc(N(c5ccccc5)c5ccccc5)cc4)cc3)cn12

absorption maximum (in ClC(Cl)Cl): 341 nm
SMILES: CCCCCCCCC1(CCCCCCCC)c2cc(-c3ccc(C(=O)OC)cc3)ccc2-c2ccc(-c3ccc(C(=O)OC)cc3)cc21

absorption maximum (in ClCCl): 314 nm
SMILES: CCCCN1C(=O)c2cccc3cc(C#CC#Cc4cc5c6c(cccc6c4)C(=O)N(CCCC)C5=O)cc(c23)C1=O

SMILES: c1cc2ccc3ccc4cc3c2cc1c1ccc2c(c1)c1cc(ccc1[C@]13OCCO[C@]21OCCO3)c1ccc2c(c1)c1cc4ccc1[C@]13OCCO[C@]21OCCO3
absorption maximum (in Cc1ccccc1): 353 nm

absorption maximum (in C1CCCCC1): 307 nm
SMILES: COC(=O)c1nc(Br)c(-c2ccccc2)o1

absorption maximum (in ClCCl): 385 nm
SMILES: CN(C)c1ccc(/C=C/c2ccnc(/C=C/c3ccc(N(C)C)cc3)n2)cc1

SMILES: Cn1cccc1-c1ccc(C#N)cc1
absorption maximum (in C1CCOC1): 326 nm
absorption maximum (in CC#N): 322 nm
absorption maximum (in CCCCCC): 317 nm
absorption maximum (in CCCCOCCCC): 321 nm
absorption maximum (in CCOCC): 321 nm

absorption maximum (in CC#N): 311.5 nm and 312 nm
absorption maximum (in CO): 311.5 nm
SMILES: c1ccc(-c2nc(-c3ccccc3)c(-c3ccccc3)[nH]2)cc1

absorption maximum (in CCO): 630 nm
absorption maximum (in CS(C)=O): 485 nm
absorption maximum (in O): 573 nm
SMILES: CC1(C)C(/C=C/c2cc3ccc(O)cc3oc2=O)=[N+](CCCS(=O)(=O)[O-])c2ccc(S(=O)(=O)O)cc21

absorption maximum (in CC1CCCCC1): 337 nm
absorption maximum (in CC#N): 333 nm
absorption maximum (in CO): 317 nm
SMILES: COC(=O)C(NC(=O)OC(C)(C)C)c1ccc2oc(-c3ccc(C#N)cc3)nc2c1 (configuration not stated)

SMILES: N#Cc1ccc2c(c1)CCc1nc(-c3ccc([N+](=O)[O-])cc3)c3c(c1-2)CCc1cc(C#N)ccc1-3
absorption maximum (in C1CCOC1): 331 nm
absorption maximum (in CC#N): 349 nm
absorption maximum (in CCCCCC): 350 nm
absorption maximum (in CCOC(C)=O): 329 nm
absorption maximum (in CO): 333 nm
absorption maximum (in CS(C)=O): 360 nm
absorption maximum (in Cc1ccccc1): 343 nm
absorption maximum (in ClCCl): 345 nm

absorption maximum (in CC#N): 255 nm
SMILES: Cc1cn(C(F)(F)F)c(=O)[nH]c1=O

absorption maximum (in CO): 457 nm
SMILES: C(=C\c1cc[n+]2ccc(/C=C/c3cc[nH]c3)cc2c1)/c1cc[nH]c1

absorption maximum (in CCCCCC): 344 nm
absorption maximum (in CO): 344 nm
absorption maximum (in ClCCl): 347 nm
SMILES: CCCCc1ccc2ccc3c(CCCC)ccc4ccc1c2c43

absorption maximum (in CC#N): 234 nm
absorption maximum (in CCCCCC): 240 nm
SMILES: Cc1ccc(C)n1-c1ccccc1

absorption maximum (in C1CCOC1): 351 nm
SMILES: C(=C(c1ccccc1)c1ccccc1)c1ccc(-c2ccc(C=C(c3ccccc3)c3ccccc3)cc2)cc1

absorption maximum (in C1CCOC1): 405 nm
absorption maximum (in CC#N): 397 nm
absorption maximum (in CCO): 404 nm
absorption maximum (in CCOC(C)=O): 403 nm
absorption maximum (in ClCCl): 404 nm
absorption maximum (in c1ccccc1): 407 nm
SMILES: CC1(C)CC(/C=C/c2ccc(-n3cccn3)cc2)=CC(=C(C#N)C#N)C1

absorption maximum (in CO): 785 nm
SMILES: Cc1ccc(CN2/C(=C/C=C3\CCCC(/C=C/C4=[N+](Cc5ccc(C)cc5)c5ccccc5C4(C)C)=C3Cl)C(C)(C)c3ccccc32)cc1

absorption maximum (in ClCCl): 323 nm
SMILES: CCOC(=O)c1c(-c2cc3ccccc3oc2=O)nn(-c2ccc(OC)cc2)c1C(=O)OCC

absorption maximum (in ClCCl): 291 nm
SMILES: c1ccc(-c2ccc(-c3cc(-c4ccccn4)nc(-c4ccccn4)c3)cc2)cc1

absorption maximum (in ClC(Cl)Cl): 661 nm
SMILES: CCOC(=O)/C(C)=C/C1=C(c2ccc(C)cc2)C2=Nc3c(-c4ccc(C)cc4)c(Br)c(-c4ccc(C)cc4)n3[B-](F)(F)[N+]2=C1c1ccc(C)cc1

SMILES: CC/C=C/C=C/C=C/C=C/CCCCCCCC(=O)O
absorption maximum (in C1COCCO1): 317.3 nm
absorption maximum (in CCCCCC): 313.5 nm
absorption maximum (in CCCCCCCCCC): 315.3 nm
absorption maximum (in CCCCO): 315.2 nm
absorption maximum (in CCO): 313.8 nm
absorption maximum (in CCOCC): 313.5 nm
absorption maximum (in CO): 313 nm
absorption maximum (in ClC(Cl)Cl): 319.6 nm
absorption maximum (in c1ccccc1): 320 nm

absorption maximum (in ClCCl): 430 nm
SMILES: CN(C)c1ccc(N2c3sc4ccccc4c3Sc3c2sc2ccccc32)cc1

SMILES: CCC1(CC)c2cc(B(c3c(C)cc(C)cc3C)c3c(C)cc(C)cc3C)ccc2-c2ccc(N(c3ccccc3)c3ccc4c(c3)C(CC)(CC)c3cc(B(c5c(C)cc(C)cc5C)c5c(C)cc(C)cc5C)ccc3-4)cc21
absorption maximum (in C1CCOC1): 422 nm
absorption maximum (in CC#N): 417 nm
absorption maximum (in CC(C)=O): 418 nm
absorption maximum (in CCCCCC): 422 nm
absorption maximum (in CN(C)C=O): 422 nm
absorption maximum (in Cc1ccccc1): 424 nm
absorption maximum (in ClC(Cl)Cl): 422 nm

SMILES: COc1ccc(-c2csc(/C(C#N)=C/c3ccc(C#N)cc3)n2)cc1
absorption maximum (in CC#N): 389 nm
absorption maximum (in CCO): 395 nm
absorption maximum (in CN(C)C=O): 395 nm
absorption maximum (in Cc1ccccc1): 400 nm
absorption maximum (in ClCCl): 396 nm

absorption maximum (in CS(C)=O): 403 nm
absorption maximum (in O): 394 nm
SMILES: CCCCCn1c2ccccc2c(=O)c2ccccc21

absorption maximum (in ClCCl): 431 nm
SMILES: c1ccc(C2=C(c3ccccc3)c3cccc4c5c(cc(c34)O2)=NC2CCCCC2N=5)cc1 (configuration not stated)

SMILES: Cc1cc(C)c(B(c2ccc(C#Cc3cc4ccc5cc(C#Cc6ccc(B(c7c(C)cc(C)cc7C)c7c(C)cc(C)cc7C)cc6)cc6ccc(c3)c4c56)cc2)c2c(C)cc(C)cc2C)c(C)c1
absorption maximum (in Cc1ccccc1): 414 nm

absorption maximum (in ClCCl): 402 nm
SMILES: CCCCn1c2ccccc2c2cc(C#Cc3ccc4ccc5cccc6ccc3c4c56)ccc21

absorption maximum (in C1CCOC1): 460 nm
absorption maximum (in CC#N): 462 nm
absorption maximum (in CCO): 464 nm
absorption maximum (in CCOC(C)=O): 457 nm
absorption maximum (in CN(C)C=O): 467 nm
absorption maximum (in ClCCl): 471 nm
absorption maximum (in c1ccccc1): 458 nm
SMILES: CCCCC(CC)Cn1c2ccc(C(=C(C#N)C#N)c3ccccc3)cc2c2c(-c3ccc(Br)cc3)c3c(c(-c4ccc(Br)cc4)c21)c1cc(C(=C(C#N)C#N)c2ccccc2)ccc1n3CC(CC)CCCC (configuration not stated)

absorption maximum (in C1COCCO1): 337 nm
absorption maximum (in CC#N): 335 nm
absorption maximum (in CC(C)(C)O): 345 nm
absorption maximum (in CC(C)O): 345 nm
absorption maximum (in CCCCO): 345 nm
absorption maximum (in CCOC(C)=O): 339 nm
absorption maximum (in CN(C)C=O): 344 nm
absorption maximum (in CO): 343 nm
absorption maximum (in ClCCl): 339 nm
absorption maximum (in O): 347 nm
SMILES: COc1ccc(C(=O)/C=C2\C(=O)Nc3ccccc32)cc1

absorption maximum (in CC#N): 448 nm
SMILES: Cc1ccc2c(nc3c(=O)n(C)c(=O)nc-3n2C)c1C

absorption maximum (in ClCCl): 340 nm
SMILES: CCCCn1c(-c2ccc(-c3nnc(-c4cccs4)o3)cc2)nc(-c2ccccc2)c1-c1ccccc1

absorption maximum (in ClCCl): 400 nm
SMILES: [O-][n+]1c(/C=C/c2ccc3ccccc3c2)nc(N2CCOCC2)c2c1CCCC2

absorption maximum (in ClC(Cl)Cl): 328 nm
SMILES: CCCCn1c2ccccc2c2ccc3c4cc(-c5cccc(F)c5)ccc4n(CCCC)c3c21

absorption maximum (in CCO): 323 nm
SMILES: Cc1cc(=O)oc2cc(O)ccc12

absorption maximum (in CC#N): 455 nm
SMILES: C[C@]12SC(=O)C=C1c1nc(-c3ccccc3O)[nH]c1C1=CC(=O)S[C@@]12C

SMILES: CCN(CC)c1ccc2cc(/C=C/C(=C(C#N)C#N)c3ccc(N(c4ccccc4)c4ccccc4)cc3)c(=O)oc2c1
absorption maximum (in CC(C)=O): 516 nm
absorption maximum (in CCOC(C)=O): 507 nm
absorption maximum (in CN(C)C=O): 528 nm
absorption maximum (in CS(C)=O): 536 nm
absorption maximum (in Cc1ccccc1): 493 nm
absorption maximum (in ClCCl): 518 nm

SMILES: CC(C)(C)c1ccc2c(c1)sc1[n+]2[B-](F)(F)n2c(c3cccc4c(Br)ccc2c43)=N1
absorption maximum (in C1CCOC1): 494 nm
absorption maximum (in CC#N): 488 nm
absorption maximum (in CCCCCC): 490 nm
absorption maximum (in Cc1ccccc1): 498 nm
absorption maximum (in ClCCl): 463 nm

absorption maximum (in ClC(Cl)Cl): 606 nm
SMILES: CCCCCCCCN1C(=O)c2ccc3c4c(-c5ccc(N(c6ccccc6)c6ccccc6)cc5)cc5c6c(cc(-c7ccc(N(c8ccccc8)c8ccccc8)cc7)c(c7ccc(c2c37)C1=O)c64)C(=O)N(CCCCCCCC)C5=O

absorption maximum (in C1CCOC1): 316 nm
SMILES: CC(C)(C)c1ccc(-c2c(-c3ccc(N(c4ccccc4)c4ccccc4)cc3)cc(-c3ccc(N(c4ccccc4)c4ccccc4)cc3)c(-c3ccc(C(C)(C)C)cc3)c2-c2ccc(C(C)(C)C)cc2)cc1

absorption maximum (in ClCCl): 530 nm
SMILES: O=[N+]([O-])c1ccc2c(ccc3[n+]2[B-](F)(F)n2c-3cc3c4ccccc4c4ccccc4c32)c1

absorption maximum (in C1CCOC1): 280 nm
SMILES: c1ccc(/C(=C(\c2ccccc2)c2ccccc2-c2ccc(-c3ccccc3)cc2)c2ccccc2-c2ccc(-c3ccccc3)cc2)cc1

absorption maximum (in ClC(Cl)Cl): 401 nm
SMILES: CO[Si](c1c2ccccc2cc2ccccc12)(c1c2ccccc2cc2ccccc12)c1c2ccccc2cc2ccccc12

absorption maximum (in CC#N): 371 nm
absorption maximum (in CCCCO): 369 nm
absorption maximum (in CCCO): 368 nm
absorption maximum (in CCO): 366 nm
absorption maximum (in CO): 364 nm
SMILES: Cc1cnc(NC(=O)C2=C([O-])c3ccccc3S(=O)(=O)N2C)s1

absorption maximum (in CC#N): 427 nm
SMILES: CN(C)C1=Nc2cccc3cccc1c23
